This note sets out measurements from US10357484B2, “Heterocyclic compound” (Takeda Pharmaceutical Company Limited, priority 2015, dated 2019).

Common to all, as to type: biochemical
One experiment concerns the target T1, HDAC6 enzyme (Homo sapiens, UniProt Q9UBN7).
T1 construct: transducing full length HDAC1 and HDAC6 genes into Sf-9 insect cells; GST; purchased SignalChem; host or cells: Sf-9 insect cells
T1 sequence (Q9UBN7 1-1215): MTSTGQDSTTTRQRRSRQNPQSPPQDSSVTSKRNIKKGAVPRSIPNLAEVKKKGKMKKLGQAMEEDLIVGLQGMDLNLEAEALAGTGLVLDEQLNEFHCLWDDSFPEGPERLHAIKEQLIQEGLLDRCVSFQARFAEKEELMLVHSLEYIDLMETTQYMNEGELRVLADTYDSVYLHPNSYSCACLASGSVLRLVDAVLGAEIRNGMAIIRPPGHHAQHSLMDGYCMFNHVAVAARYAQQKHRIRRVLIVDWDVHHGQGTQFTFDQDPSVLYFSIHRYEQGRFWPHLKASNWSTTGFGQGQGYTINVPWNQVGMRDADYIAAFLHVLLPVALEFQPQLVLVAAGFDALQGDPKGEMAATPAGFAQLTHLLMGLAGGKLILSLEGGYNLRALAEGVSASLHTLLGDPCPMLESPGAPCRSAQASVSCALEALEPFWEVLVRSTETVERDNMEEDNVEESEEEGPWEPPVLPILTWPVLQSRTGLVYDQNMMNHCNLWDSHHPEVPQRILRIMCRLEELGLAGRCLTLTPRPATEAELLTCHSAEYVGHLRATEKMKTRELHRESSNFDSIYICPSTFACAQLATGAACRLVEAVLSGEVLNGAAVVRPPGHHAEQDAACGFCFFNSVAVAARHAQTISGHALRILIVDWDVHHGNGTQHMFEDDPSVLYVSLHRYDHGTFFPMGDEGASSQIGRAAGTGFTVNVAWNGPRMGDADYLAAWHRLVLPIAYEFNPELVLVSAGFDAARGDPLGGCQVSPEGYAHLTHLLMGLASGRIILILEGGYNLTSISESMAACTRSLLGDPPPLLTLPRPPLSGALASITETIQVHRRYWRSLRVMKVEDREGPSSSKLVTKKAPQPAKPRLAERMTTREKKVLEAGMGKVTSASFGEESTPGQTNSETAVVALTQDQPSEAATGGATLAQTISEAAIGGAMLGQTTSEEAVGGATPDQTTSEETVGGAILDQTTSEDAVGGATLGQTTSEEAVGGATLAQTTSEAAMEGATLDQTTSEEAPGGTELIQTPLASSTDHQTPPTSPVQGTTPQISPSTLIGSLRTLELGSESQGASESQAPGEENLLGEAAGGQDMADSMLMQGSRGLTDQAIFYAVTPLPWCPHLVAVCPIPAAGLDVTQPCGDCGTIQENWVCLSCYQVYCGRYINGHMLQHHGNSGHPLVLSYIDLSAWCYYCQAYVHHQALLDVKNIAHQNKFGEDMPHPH
The experiment in a line: HDAC6 enzyme inhibitory assay (HDAC-Glo I/II Assay kit). Conditions: 1 μM test compound; wells without enzyme = 100% inhibition; read-out: HDAC6 inhibitory rate (%) (1 μM). As to the method: (§1) HDAC1/6 Enzyme Inhibitory Assay
(§2) HDAC1 enzyme and HDAC6 enzyme each prepared by transducing full length HDAC1 and HDAC6 genes into Sf-9 insect cells and purifying by GST affinity column were purchased from SignalChem. Using these enzymes, HDAC1 and/or HDAC6 enzyme inhibitory activities of the compound of the present invention were evaluated. Enzymes were used after preserved at −70° C. HDAC1 or HDAC6 enzyme inhibitory activity of the compound of the present invention was measured using HDAC-Glo™ I/II Assay kit (Promega) according to the following experimental method. The test compound diluted with assay buffer (24 mM Tris-HCl (pH 7.5), 1 mM MgCl2, 0.35 mM KCl, 135 mM NaCl, 0.6 mM Glutathione, 0.01% Tween-20) was added to a 384-well plate by each 2 μL. Then, HDAC1 or HDAC6 enzyme solution diluted with assay buffer was added thereto by each 4 μL, and the plate was incubated at room temperature for 60 min. After incubated, HDAC substrate-Developer solution prepared according to Promega protocol attached to the assay kit was added to the 384-well plate by each 2 μL, and the enzyme reaction was started. After reacting at room temperature for 20 min, luminescence level was measured using plate reader Envision (PerkinElmer). The inhibitory activity of each compound was calculated as a relative activity value when luminescence level in wells without enzyme is considered as 100% inhibition.

The target of a further experiment is T2, HDAC9 enzyme (Homo sapiens, UniProt Q9UKV0).
T2 construct: transducing full length HDAC9 gene into Sf-9 insect cells; made in house; host or cells: Sf-9 insect cells
The experiment in a line: HDAC9 enzyme inhibitory assay (HDAC-Glo class IIa). The conditions noted are these: 1 μM test compound; wells without enzyme = 100% inhibition; read-out: HDAC9 inhibitory rate (%) (1 μM). Here is the method: HDAC9 Enzyme Inhibitory Assay
Enzyme was prepared by transducing full length HDAC9 gene into Sf-9 insect cells and purifying by Ni-NTA affinity column, and HDAC9 enzyme inhibitory activity was evaluated. Enzymes were used after preserved at −70° C. HDAC9 enzyme inhibitory activity of the test compound was measured using HDAC-Glo class IIa (Promega) according to the following experimental method. The test compound diluted with assay buffer (24 mM Tris-HCl (pH 7.5), 1 mM MgCl2, 0.35 mM KCl, 135 mM NaCl, 0.6 mM Glutathione, 0.01% Tween-20) was added to a 384-well plate by each 2 μL. Then, HDAC9 enzyme solution diluted with assay buffer was added thereto by each 2 μL, and the plate was incubated at room temperature for 60 min. After incubated, HDAC substrate-Developer solution prepared according to Promega protocol was added to the 384-well plate by each 4 μL, and the enzyme reaction was started. After reacting at room temperature for 20 min, luminescence level was measured using plate reader Envision (PerkinElmer). The inhibitory activity of each compound was calculated as a relative activity value when luminescence level in wells without enzyme is considered as 100% inhibition.

The next experiment addresses T3, HDAC1 enzyme (Homo sapiens, UniProt Q13547).
T3 construct: transducing full length HDAC1 and HDAC6 genes into Sf-9 insect cells; GST; purchased SignalChem; host or cells: Sf-9 insect cells
The experiment in a line: HDAC1 enzyme inhibitory assay (HDAC-Glo I/II Assay kit). Conditions: 1 μM test compound; wells without enzyme = 100% inhibition; read-out: HDAC1 inhibitory rate (%) (1 μM). As to the method:
as §1, §2

The structures appear in SMILES notation.

T3 sequence (Q13547 whole entry): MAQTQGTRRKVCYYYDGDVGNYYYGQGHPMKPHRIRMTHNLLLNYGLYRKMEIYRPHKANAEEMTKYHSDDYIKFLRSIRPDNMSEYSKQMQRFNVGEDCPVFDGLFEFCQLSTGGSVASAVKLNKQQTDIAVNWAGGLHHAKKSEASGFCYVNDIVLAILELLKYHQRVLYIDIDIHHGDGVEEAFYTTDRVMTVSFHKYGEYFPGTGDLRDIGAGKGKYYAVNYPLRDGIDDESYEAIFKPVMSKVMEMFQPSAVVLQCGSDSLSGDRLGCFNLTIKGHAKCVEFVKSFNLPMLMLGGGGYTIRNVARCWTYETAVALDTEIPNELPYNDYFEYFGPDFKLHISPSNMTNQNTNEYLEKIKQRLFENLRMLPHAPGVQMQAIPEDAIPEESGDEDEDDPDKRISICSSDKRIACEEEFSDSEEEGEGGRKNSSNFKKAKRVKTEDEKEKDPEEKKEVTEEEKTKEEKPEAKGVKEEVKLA
T2 sequence (Q9UKV0 whole entry, species assumed): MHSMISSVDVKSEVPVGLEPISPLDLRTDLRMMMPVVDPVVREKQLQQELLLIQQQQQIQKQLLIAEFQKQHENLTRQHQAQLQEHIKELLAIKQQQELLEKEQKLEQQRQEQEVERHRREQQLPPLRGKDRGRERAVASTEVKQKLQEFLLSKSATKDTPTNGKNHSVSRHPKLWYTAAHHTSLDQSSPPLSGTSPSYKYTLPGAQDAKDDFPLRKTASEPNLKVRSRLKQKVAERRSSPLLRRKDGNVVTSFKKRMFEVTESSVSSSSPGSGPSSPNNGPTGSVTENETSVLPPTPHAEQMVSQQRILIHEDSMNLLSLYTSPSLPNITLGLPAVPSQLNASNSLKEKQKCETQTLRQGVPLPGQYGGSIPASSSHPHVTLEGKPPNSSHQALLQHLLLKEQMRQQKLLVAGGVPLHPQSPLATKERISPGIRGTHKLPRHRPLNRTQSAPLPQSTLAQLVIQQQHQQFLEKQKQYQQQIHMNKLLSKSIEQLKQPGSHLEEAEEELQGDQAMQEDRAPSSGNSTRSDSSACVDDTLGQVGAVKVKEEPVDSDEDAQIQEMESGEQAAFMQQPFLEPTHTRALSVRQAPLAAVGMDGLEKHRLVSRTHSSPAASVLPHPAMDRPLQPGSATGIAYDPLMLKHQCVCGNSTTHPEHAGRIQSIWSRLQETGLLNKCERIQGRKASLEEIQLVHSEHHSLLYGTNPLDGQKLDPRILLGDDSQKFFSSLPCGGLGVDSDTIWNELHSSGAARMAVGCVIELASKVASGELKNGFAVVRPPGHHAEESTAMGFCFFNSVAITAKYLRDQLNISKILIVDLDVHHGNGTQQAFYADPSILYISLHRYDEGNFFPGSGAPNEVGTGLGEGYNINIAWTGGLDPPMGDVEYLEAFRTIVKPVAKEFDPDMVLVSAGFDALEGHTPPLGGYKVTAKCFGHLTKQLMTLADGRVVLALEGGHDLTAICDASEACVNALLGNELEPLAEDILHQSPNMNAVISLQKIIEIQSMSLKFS

As for `C[C@H](c1ccccc1)N1Cc2ccc(-c3noc(C(F)(F)F)n3)cc2C1=O` [Example 7, 2-((1R)-1-phenylethyl)-6-(5-(trifluoromethyl)-1,2,4-oxadiazol-3-yl)isoindolin-1-one], the values for the inhibition at 1 µM on HDAC6 enzyme, on HDAC9 enzyme and at HDAC1 enzyme were 95%, 78% and 17%, respectively.

For `O=C1c2cc(-c3noc(C(F)(F)F)n3)cnc2CN1Cc1ccccc1` [Example 1, 6-benzyl-3-(5-(trifluoromethyl)-1,2,4-oxadiazol-3-yl)-6,7-dihydro-5H-pyrrolo[3,4-b]pyridin-5-one], the inhibition at 1 µM at HDAC6 enzyme was determined as 101%; on HDAC9 enzyme, 94%; on HDAC1 enzyme it was 61%.

Consider `O=C1c2cc(-c3noc(C(F)(F)F)n3)ccc2CN1Cc1ccccc1Cl` [Example 25, 2-(2-chlorobenzyl)-6-(5-(trifluoromethyl)-1,2,4-oxadiazol-3-yl)isoindolin-1-one], for which the values for the inhibition at 1 µM on HDAC6 enzyme, on HDAC9 enzyme and at HDAC1 enzyme were 94%, 64% and 11%, respectively.

On to `O=C1c2cc(-c3noc(C(F)(F)F)n3)ccc2CN1Cc1ccccc1F` [Example 24, 2-(2-fluorobenzyl)-6-(5-(trifluoromethyl)-1,2,4-oxadiazol-3-yl)isoindolin-1-one], for which the inhibition at 1 µM at HDAC6 enzyme came out at 97%; at HDAC9 enzyme, 75%; on HDAC1 enzyme, 17%.

Regarding `CC(C)(c1ccccc1)N1Cc2ncc(-c3noc(C(F)(F)F)n3)cc2C1=O` [Example 3, 6-(2-phenylpropan-2-yl)-3-(5-(trifluoromethyl)-1,2,4-oxadiazol-3-yl)-6,7-dihydro-5H-pyrrolo[3,4-b]pyridin-5-one], the inhibition at 1 µM came to 98% on HDAC6 enzyme, 89% at HDAC9 enzyme and 36% on HDAC1 enzyme.

Consider `CS(=O)(=O)c1ccc(CN2Cc3ccc(-c4noc(C(F)(F)F)n4)cc3C2=O)cc1` [Example 30, 2-(4-(methylsulfonyl)benzyl)-6-(5-(trifluoromethyl)-1,2,4-oxadiazol-3-yl)isoindolin-1-one], for which the inhibition at 1 µM on HDAC6 enzyme was 94%; at HDAC9 enzyme it was 83%; on HDAC1 enzyme, 30%.

As to `COc1cc(CN2Cc3ccc(-c4noc(C(F)(F)F)n4)cc3C2=O)ccc1OCC1CCCO1` (stereo not drawn) [Example 31, 2-(3-methoxy-4-(tetrahydrofuran-2-ylmethoxy)benzyl)-6-(5-(trifluoromethyl)-1,2,4-oxadiazol-3-yl)isoindolin-1-one], the inhibition at 1 µM at HDAC6 enzyme turned out to be 94%; at HDAC9 enzyme it was 92%; on HDAC1 enzyme it was 40%.

With `O=C1c2cc(-c3noc(C(F)(F)F)n3)ccc2CN1Cc1ccccn1` [Example 32], the inhibition at 1 µM at HDAC6 enzyme is 99%; on HDAC9 enzyme, 77%; at HDAC1 enzyme, 13%.

Turning to `C[C@H](c1cccc2ccccc12)N1Cc2ccc(-c3noc(C(F)(F)F)n3)cc2C1=O` [Example 23, 2-((1R)-1-(1-naphthyl)ethyl)-6-(5-(trifluoromethyl)-1,2,4-oxadiazol-3-yl)isoindolin-1-one], the inhibition at 1 µM on HDAC6 enzyme came to 99%; on HDAC9 enzyme, 28%; at HDAC1 enzyme, 4%.

For `C[C@@H](c1ccc(F)cc1OC(F)F)N1Cc2ccc(-c3noc(C(F)(F)F)n3)cc2C1=O` [Example 21, 2-((1S)-1-(2-(difluoromethoxy)-4-fluorophenyl)ethyl)-6-(5-(trifluoromethyl)-1,2,4-oxadiazol-3 yl)isoindolin-1-one], the results for the inhibition at 1 µM at HDAC6 enzyme, at HDAC9 enzyme and at HDAC1 enzyme were 96%, 73% and 18%, respectively.

Take `COc1ccccc1CN1Cc2ccc(-c3noc(C(F)(F)F)n3)cc2C1=O` [Example 12, 2-(2-methoxybenzyl)-6-(5-(trifluoromethyl)-1,2,4-oxadiazol-3-yl)isoindolin-1-one]: the inhibition at 1 µM stood at 96% on HDAC6 enzyme, 76% on HDAC9 enzyme and 23% at HDAC1 enzyme.

In the case of `Cc1csc(CN2Cc3ccc(-c4noc(C(F)(F)F)n4)cc3C2=O)n1` [Example 37, 2-((4-methyl-1,3-thiazol-2-yl)methyl)-6-(5-(trifluoromethyl)-1,2,4-oxadiazol-3-yl)isoindolin-1-one], the inhibition at 1 µM at HDAC6 enzyme turned out to be 96%; on HDAC9 enzyme it was 84%; on HDAC1 enzyme, 20%.

`N#Cc1cccc(CN2Cc3ccc(-c4noc(C(F)(F)F)n4)cc3C2=O)c1` [Example 28, 3-((1-oxo-6-(5-(trifluoromethyl)-1,2,4-oxadiazol-3-yl)-1,3-dihydro-2H-isoindol-2-yl)methyl)benzonitrile]: the inhibition at 1 µM on HDAC6 enzyme amounted to 95%; at HDAC9 enzyme, 82%; at HDAC1 enzyme it was 26%.

With `COc1cccc([C@H](C)N2Cc3ccc(-c4noc(C(F)(F)F)n4)cc3C2=O)c1` [Example 19, 2-((1S)-1-(3-methoxyphenyl)ethyl)-6-(5-(trifluoromethyl)-1,2,4-oxadiazol-3-yl)isoindolin-1-one], the inhibition at 1 µM at HDAC6 enzyme stood at 99%; at HDAC9 enzyme it was 87%; on HDAC1 enzyme, 29%.

In the case of `CC(c1ccccc1)N1Cc2ncc(-c3noc(C(F)(F)F)n3)cc2C1=O` (stereo not drawn) [Example 2, 6-(1-phenylethyl)-3-(5-(trifluoromethyl)-1,2,4-oxadiazol-3-yl)-6,7-dihydro-5H-pyrrolo[3,4-b]pyridin-5-one], the inhibition at 1 µM on HDAC6 enzyme was 100%; at HDAC9 enzyme, 92%; at HDAC1 enzyme, 57%.

As to `O=C1c2cc(-c3noc(C(F)(F)F)n3)ccc2CN1Cc1ccccc1Oc1ccccc1` [Example 11, 2-(2-phenoxybenzyl)-6-(5-(trifluoromethyl)-1,2,4-oxadiazol-3-yl)isoindolin-1-one], the values for the inhibition at 1 µM on HDAC6 enzyme, at HDAC9 enzyme and at HDAC1 enzyme were 68%, 5% and 4%, respectively.

As for `O=C1c2cc(-c3noc(C(F)(F)F)n3)ccc2CN1Cc1ccccc1` [Example 6, 2-benzyl-6-(5-(trifluoromethyl)-1,2,4-oxadiazol-3-yl)isoindolin-1-one], the figures for the inhibition at 1 µM on HDAC6 enzyme, on HDAC9 enzyme and at HDAC1 enzyme were 102%, 82% and 24%, respectively.
